According to the METLIN SMRT retention time set (Domingo-Almenara et al. 2019):

Assay: gradient 5% acetonitrile 3 min, to 50% in 2 min, to 85% in 15 min, held 3 min, 100 µL/min
Conditions: column: Zorbax Extend-C18 2.1 x 50 mm; eluents: water / acetonitrile, 0.1% formic acid
Method in brief: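 Pure standards were analyzed in mixtures of ~100 molecules using HPLC coupled to a quadrupole time-of-flight mass spectrometer, in both positive and negative ionization mode. Separation used a Zorbax Extend-C18 column (2.1 × 50 mm, 1.8 μm) at 100 μL/min, with water and acetonitrile each containing 0.1% formic acid. Dead and dwell volumes were 40 μL and 900 μL, and data were collected over 3 months. Retention time was read from computationally picked adduct peaks, each inspected manually.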

Compound	RP-LC retention time
c1ccc(-c2nc3cc(-c4noc(-c5ccccn5)n4)ccc3o2)cc1	1120 s
COC(=O)c1ccc2c(=O)n(CCc3ccccc3)c(N3CCN(c4ccccn4)CC3)nc2c1	756 s
CCCN1C(=O)COc2ccc(-c3noc(Cc4ccc(NC(C)=O)cc4)n3)cc21	841 s
CCn1c(=O)c(N2CCN(C(=O)Nc3ccc(Br)cc3F)CC2)nc2ccccc21	1030 s
CCN(C(=O)Nc1ccccc1C(=O)OC)c1nc(-c2ccc(C3CCCCC3)cc2)cs1	590 s
Cc1nc([C@@H]2CN(S(=O)(=O)c3ccc(Cl)s3)C[C@H]2C(N)=O)n[nH]1	631 s
Cc1cccc(NC(=O)C2CCN(S(=O)(=O)c3c(C)[nH]c(C)c3C(=O)N3CCCCC3)CC2)n1	642 s
COc1ccc(N(Cc2nnc3n2CCCCC3)C(=O)Nc2ccccc2)c(OC)c1	713 s
CCn1c(SC)nnc1-c1nn(C)c2c1CN(C(=O)c1ccc(F)c(F)c1)CC2	804 s
O=C1Cc2ccccc2N1c1c(Cl)cccc1Cl	875 s
COc1cccc(OCC2c3ccsc3CCN2C(=O)CN(CC2CCCO2)C(=O)C(C)C)c1 (configuration not stated)	906 s
O=C(c1cccc2[nH]ccc12)N1CCN(c2cc(-c3cccs3)[nH]n2)CC1	832 s
O=C(CN1CCN(C(=O)Nc2ccccc2)CC1=O)N1CCN(c2ccccc2)CC1	696 s
O=C(c1ccc2c(c1)OCO2)N1CCC2(CC1)NC(=O)N(Cc1cccc(Cl)c1)C2=O	840 s
Cc1ccc(CN2CC(c3nc(CCOCc4ccccc4)no3)C2)s1	716 s
Cc1ccc(NC(=O)C2CCCN(S(=O)(=O)c3cc(-c4noc(C5CCC5)n4)cs3)C2)cc1 (configuration not stated)	1170 s
Cc1ccc(N2CC(c3nc(-c4ccc5c(c4)OCO5)no3)CC2=O)cc1F (configuration not stated)	986 s
O=C(NC1CCCCCCC1)C1CCCN(c2nc3ccccc3n(Cc3ccccc3)c2=O)C1 (configuration not stated)	1370 s
Cc1c(C(=O)C(=O)NCC2COc3ccccc3O2)c2ccccc2n1C (configuration not stated)	777 s
CCN1C(=O)c2cccnc2Sc2cc(NC(=O)c3cccc(F)c3)ccc21	844 s
COc1ccc(CCC(=O)c2c(O)cc(O[C@@H]3O[C@H](CO)[C@@H](O)[C@H](O)[C@H]3O[C@@H]3O[C@@H](C)[C@H](O)[C@@H](O)[C@H]3O)cc2O)cc1O	654 s
COc1ccc(CSc2ncn[nH]2)cc1	630 s

Compound	RP-LC retention time
Cc1ccc2nc(C(=O)NCc3ccc(OC(C)C)cc3)cn2c1	731 s
CCCCOc1ccccc1C1NC(=O)NC(C)=C1C(=O)OCc1ccco1 (configuration not stated)	938 s
CCc1ccc(C2=C(C)C(N3CCCN(C(=O)C(C)C)CC3)=NS2(=O)=O)cc1	824 s
CCOc1ccccc1NC(=O)N1CCCC1c1nc(-c2cccc(OC)c2)no1 (configuration not stated)	1100 s
O=C(Nc1ccccc1)C1CCCN(S(=O)(=O)Cc2ccc(Cl)cc2)C1 (configuration not stated)	1010 s
O=C(NC1CC1)c1ccc(CN2CCN(Cc3ccc(F)cc3)C(=O)C2=O)cc1	673 s
O=C(C1CCCN(c2ncc(-c3ccc(F)cc3)cn2)C1)N1CCCC1 (configuration not stated)	863 s
Cc1nc(-c2ccc(-c3noc(-c4cncc(Br)c4)n3)cc2)cs1	1250 s
O=C(Nc1nnc(C2CC(=O)N(c3ccc(F)cc3)C2)o1)c1ccccc1 (configuration not stated)	711 s
CCOc1ccc(CCNC(=O)c2nc(CCS(=O)(=O)c3ccc(F)cc3)no2)cc1OCC	952 s
CCOc1ccc(-c2noc(N3CCC(C(=O)NCC4CCCO4)CC3)n2)cc1OC (configuration not stated)	749 s
CN1C(=O)Cc2ccccc2C1C(=O)NCc1ccccc1F (configuration not stated)	713 s
COC(=O)c1cccc(C(=O)Nc2ccccc2C)n1	869 s
Cc1cc(CN2CC(F)(F)C[C@H]2c2nnc(-c3ccccc3)o2)n(C)n1	806 s
CC1CC(C)CN(CCCNC(=O)Cn2ncc3c4ccccc4n(C)c3c2=O)C1 (configuration not stated)	659 s
O=C(c1ccc(C(F)(F)F)cc1)N1CC2CN(S(=O)(=O)c3ccccc3)CC(C1)O2	881 s
Cc1cc2c(C)c(C(=O)N3CCCCC3)oc2c(S(=O)(=O)N2CCN(c3ncccn3)CC2)c1C	1100 s
CCCc1cc(C2CCCN2C(=O)Cc2ccc(OC)cc2)no1 (configuration not stated)	909 s
CC(C)C(=O)N1CCC(c2nc(CNC(=O)C3CCC3)cs2)CC1	662 s
Cc1cc(N2CCN(c3ccccn3)CC2)n2ncc(-c3ccccc3Cl)c2n1	732 s
CCCn1cc(CCNC(=O)Nc2cc(F)c(F)c(F)c2)c2cccnc21	866 s
CCNC(=O)c1cc(C)nc2ccc(C(C)C)cc12	697 s

Compound	RP-LC retention time
Cc1nn(CC(=O)NCc2cc(F)cc(F)c2)c(=O)c2nc(-c3ccccc3)sc12	891 s
O=S(=O)(c1ccc2c(c1)CCC2)N1CCCC1c1nc(-c2ccc(Cl)cc2)no1 (configuration not stated)	1310 s
O=C(c1cc2n(n1)CCCN(Cc1ccc(F)cc1)C2=O)N1CCN(c2ccccn2)CC1	802 s
CC(=O)Oc1ccc2cc(-c3ccccc3)c(=O)oc2c1	1000 s
COc1cc(NC(=O)Cn2c(=O)n(-c3ccc(F)cc3)c3ncccc32)cc(OC)c1	849 s
O=C(CN1C(=O)c2ccccc2C1=O)Nc1ccc2c(c1)N(C(=O)c1ccco1)CCC2	738 s
Cc1oc(-c2[nH]ncc2C(=O)N(C)C)cc1S(=O)(=O)NCCC(C)C	692 s
Cc1ccc(CNC(=O)C2(C)CN(S(C)(=O)=O)CC(=O)N2c2ccc(F)cc2)cc1 (configuration not stated)	746 s
CCOC(=O)C1CCCN(C(=O)c2csc3nc(-c4ccc(F)cc4)cn23)C1 (configuration not stated)	854 s
Cc1cc(F)ccc1NC(=O)c1c(O)c2cccnc2n(-c2ccccc2)c1=O	1280 s
O=C(NCCC1CCN(C(=O)Nc2ccc(F)cc2F)CC1)C1CCCC1	777 s
O=C(NCCC1=CCCCC1)c1ccc(CN2CCN(C3CCCC3)C(=O)C2=O)cc1	836 s
Cc1cccn2cc(C(=O)NCc3cc(F)ccc3F)nc12	655 s
COc1ccc(Nc2c(-c3ccc(N4CCOCC4)cc3)nc3ncccn23)cc1OC	619 s
Cc1ccc(NC(=O)N2CCN(C3=CC4=NCC(C)N4C=N3)CC2)c(C)c1 (configuration not stated)	623 s
COc1cccc(CNC(=O)C2(C)CCCN(C(=O)Nc3ccc(Cl)cc3)C2)c1 (configuration not stated)	942 s
Cc1nc(N2CCCC(C(=O)NC(C)C)C2)c2c(C)c(C)oc2n1 (configuration not stated)	712 s
Nc1nc(Nc2ccccc2)nc2c1ncn2[C@@H]1O[C@H](CO)[C@H](O)C1O (some centres not stated)	579 s
CCOC(=O)C1CCC(CNC(=O)Nc2cccn3cnnc23)CC1 (configuration not stated)	654 s
CCOC(=O)c1ccc(NC(=O)c2cc(C(C)C)n3nccc3n2)cc1	1170 s
O=C(O)c1cccc2c1CCN2C(=O)Nc1ccc(F)cc1	782 s
CCNC(=O)CN1c2ccc(F)cc2-c2ccccc2S1(=O)=O	786 s

Compound	RP-LC retention time
CCOc1ccc(C(=O)Nc2ccc3c(c2)Sc2ncccc2C(=O)N3C(C)C)cc1	972 s
Cc1ccc(NS(=O)(=O)c2cc3n(c2)CCCN(C)C3=O)c(F)c1	684 s
O=C1NCCCn2cc(S(=O)(=O)N3CCN(c4ccccc4F)CC3)cc21	742 s
CN1CC(=O)NC(c2ccccc2Cl)C1=O (configuration not stated)	541 s
COc1cc2c(cc1OC)C(C(=O)NCc1cccnc1)C(c1ccc(SC)cc1)N(C)C2=O (configuration not stated)	630 s
Cc1ncc2c(n1)C[C@@H]1CC[C@H]2N1C(=O)COc1ccc(F)cc1	675 s
COc1ccc(-c2csc(NC(=O)CS(=O)(=O)c3ccc(C)cc3)n2)cc1OC	893 s
COc1ccc(OC)c(NC(=O)CN2CCc3[nH]c4c(C)c(C)ccc4c(=O)c3C2)c1	642 s
CCC1CCCCN1CCCNC(=O)c1sc2nc3n(c(=O)c2c1C)CCC3 (configuration not stated)	598 s
COCCN1CCn2cc(S(=O)(=O)Nc3ccc(OC)cc3)cc2C1=O	662 s
COc1ccc(C2CC(=O)N(c3cccc(Br)c3)C(=O)C2)cc1	970 s
N#Cc1cnc2ccc(Cl)cc2c1N1CCC(C(=O)Nc2cccc(C(F)(F)F)c2)CC1	1120 s
CC(C)c1cccc(NC(=O)Cn2nc(N3CCCC3)c3ccccc3c2=O)c1	1090 s
Cc1cn(C)c(CC(=O)N2CCc3ccccc32)c1C(=O)O	742 s
Cc1cc(=O)n(CC(=O)Nc2ccc(N(C)C)cc2)c(N2CCOCC2)n1	555 s
Cn1nc(C(=O)N2CCOCC2)c2c1CCN(C(=O)Nc1ccc(Br)cc1F)C2	713 s
COCCCNC(=O)c1ccc(OCc2nnc(C(=O)Nc3ccccc3F)s2)cc1	806 s
COc1ccc2c(c1[N+](=O)[O-])CC[C@@H]1[C@@H]2CC[C@]2(C)C(=O)CC[C@@H]12	1050 s
CCOCCCNCc1ccc(-c2ccc(Cl)cc2Cl)o1	765 s
COCCC1(N(C)C)CCN(C(=O)CC2CCCCC2)CC1	621 s
COc1ccccc1-c1nnc(-c2ccc(C)c(S(=O)(=O)N3CCCCCC3)c2)o1	1100 s
